{"source": "patent US8084469B2", "about": "“Substituted piperidines” (Bayer Pharma Aktiengesellschaft, priority 2009, dated 2011)", "note": "pIC50: −log10 of the molar value."}
{"molecular_target": "T1, human protease activated receptor 1 (PAR-1) (Homo sapiens, UniProt P25116)", "T1 construct": "the cell stably expresses the endogenous human PAR-1 receptor; endogenous in cells; host or cells: HEK293-derived recombinant cell line; only the aequorin reporter is recombinant", "T1 sequence (P25116 22-425)": "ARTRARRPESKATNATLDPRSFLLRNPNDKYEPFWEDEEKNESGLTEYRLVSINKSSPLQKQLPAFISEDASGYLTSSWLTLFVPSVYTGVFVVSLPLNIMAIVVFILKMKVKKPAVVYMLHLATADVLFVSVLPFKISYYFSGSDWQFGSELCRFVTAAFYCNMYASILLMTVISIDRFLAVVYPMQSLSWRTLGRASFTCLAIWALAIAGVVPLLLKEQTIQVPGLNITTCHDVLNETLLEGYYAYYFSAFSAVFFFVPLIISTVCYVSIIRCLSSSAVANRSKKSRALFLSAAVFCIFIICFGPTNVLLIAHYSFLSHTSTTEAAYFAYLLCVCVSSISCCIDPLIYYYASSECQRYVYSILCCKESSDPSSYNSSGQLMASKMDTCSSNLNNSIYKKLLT", "test": "Cellular functional in vitro test (aequorin luminescence in recombinant HEK293 PAR-1 test cell)", "type": "cell-based", "conditions": "PAR-1 test cell (HEK293-derived), PAR-1 agonist at EC50 concentration, aequorin light signal", "description": "Cellular Functional In Vitro Test\nA recombinant cell line is used to identify antagonists of the human protease activated receptor 1 (PAR-1) and to quantify the activity of the substances described herein. The cell is originally derived from a human embryonal kidney cell (HEK293; ATCC: American Type Culture Collection, Manassas, Va. 20108, USA). The test cell line constitutively expresses a modified form of the calcium-sensitive photoprotein aequorin which, after reconstitution with the cofactor coelenterazine, emits light when the free calcium concentration in the inner mitochondrial compartment is increased (Rizzuto R, Simpson A W, Brini M, Pozzan T.; Nature 1992, 358, 325-327). Additionally, the cell stably expresses the endogenous human PAR-1 receptor and the endogenous purinergic receptor P2Y2. The resulting PAR-1 test cell responds to stimulation of the endogenous PAR-1 or P2Y2 receptor with an intracellular release of calcium ions, which can be quantified through the resulting aequorin luminescence with a suitable luminometer (Milligan G, Marshall F, Rees S, Trends in Pharmacological Sciences 1996, 17, 235-237).\nFor the testing of the substance specificity, the effect thereof after activation of the endogenous PAR-1 receptor is compared with the effect after activation of the endogenous purinergic P2Y2 receptor which utilizes the same intracellular signal path.\nTest procedure: The cells are plated out two days (48 h) before the test in culture medium (DMEM F12, supplemented with 10% FCS, 2 mM glutamine, 20 mM HEPES, 1.4 mM pyruvate, 0.1 mg/ml gentamycin, 0.15% Na bicarbonate; BioWhittaker Cat.# BE04-687Q; B-4800 Verviers, Belgium) in 384-well microtitre plates and kept in a cell incubator (96% atmospheric humidity, 5% v/v CO2, 37° C.). On the day of the test, the culture medium is replaced by a tyrode solution (in mM: 140 sodium chloride, 5 potassium chloride, 1 magnesium chloride, 2 calcium chloride, 20 glucose, 20 HEPES), which additionally contains the cofactor coelenterazine (25 μM) and glutathione (4 mM), and the microtitre plate is then incubated for a further 3-4 hours. The test substances are then pipetted onto the microtitre plate, and 5 minutes after the transfer of the test substances into the wells of the microtitre plate the plate is transferred into the luminometer, a PAR-1 agonist concentration which corresponds to EC50 is added and the resulting light signal is immediately measured in the luminometer. To distinguish an antagonist substance action from a toxic action, the endogenous purinergic receptor is immediately subsequently activated with agonist (ATP, final concentration 10 μM) and the resulting light signal is measured."}
{"smiles": "O=C(N1CCOCC1)N1CC(c2ccc(C(F)(F)F)cc2)CC(c2nc(NC3CC3)no2)C1", "note": "(racemic) [Example 9, {3-[3-(Cyclopropylamino)-1,2,4-oxadiazol-5-yl]-5-[4-(trifluoromethyl)phenyl]piperidin-1-yl}-(morpholin-4-yl)methanone]", "pIC50": 7.84}
{"smiles": "CCOc1noc(C2CC(c3ccc(CC(F)(F)F)c(F)c3)CN(C(=O)N3CC[S+]([O-])CC3)C2)n1", "note": "(single isomer, unassigned) [Example 80, {3-(3-Ethoxy-1,2,4-oxadiazol-5-yl)-5-[3-fluoro-4-(2,2,2-trifluoroethyl)phenyl]piperidin-1-yl}(1-oxidothiomorpholin-4-yl)methanone]", "pIC50": 8.29}
{"smiles": "CCOc1noc(C2CC(c3ccc(CC)cc3)CN(C(=O)N3CC(O)C3)C2)n1", "note": "(racemic) [Example 35, [3-(3-Ethoxy-1,2,4-oxadiazol-5-yl)-5-(4-ethylphenyl)piperidin-1-yl](3-hydroxyazetidin-1-yl)methanone]", "pIC50": 7.45}
{"smiles": "CC(C)Oc1noc(C2CC(c3ccc(OC(F)(F)F)cc3)CN(C(=O)N3CCSCC3)C2)n1", "note": "(racemic) [Example 33, {3-(3-Isopropoxy-1,2,4-oxadiazol-5-yl)-5-[4-(trifluoromethoxy)phenyl]piperidin-1-yl}(thiomorpholin-4-yl)methanone]", "pIC50": 8.77}
{"smiles": "CCN(CCO)c1noc(C2CC(c3ccc(C(F)(F)F)cc3)CN(C(=O)N3CCOCC3)C2)n1", "note": "(racemic) [Example 16, (3-{3-[Ethyl(2-hydroxyethyl)amino]-1,2,4-oxadiazol-5-yl}-5-[4-(trifluoromethyl)phenyl]piperidin-1-yl)(morpholin-4-yl)methanone]", "pIC50": 7.16}
{"smiles": "CCc1ccc(C2CC(c3nc(OCCOC)no3)CN(C(=O)N3CCS(=O)(=O)CC3)C2)cc1", "note": "(single isomer, unassigned) [Example 63, (1,1-Dioxidothiomorpholin-4-yl){3-(4-ethylphenyl)-5-[3-(2-methoxyethoxy)-1,2,4-oxadiazol-5-yl]-piperidin-1-yl}methanone]", "pIC50": 7.69}
{"smiles": "CCN(CC)c1noc(C2CC(c3ccc(C(F)(F)F)cc3)CN(C(=O)N3CCOCC3)C2)n1", "note": "(single isomer, unassigned) [Example 6, {3-[3-(Diethylamino)-1,2,4-oxadiazol-5-yl]-5-[4-(trifluoromethyl)phenyl]piperidin-1-yl}-(morpholin-4-yl)methanone]", "pIC50": 8.06}
{"smiles": "CCOc1noc(C2CC(c3ccc(CC)c(F)c3)CN(C(=O)N3CCS(=O)(=O)CC3)C2)n1", "note": "(racemic) [Example 101, (1,1-Dioxidothiomorpholin-4-yl)[3-(3-ethoxy-1,2,4-oxadiazol-5-yl)-5-(4-ethyl-3-fluorophenyl)-piperidin-1-yl]methanone]", "pIC50": 8.20}
{"smiles": "CCOc1noc(C2CC(c3ccc(CC(F)(F)F)cc3)CN(C(=O)N3CCS(=O)(=O)CC3)C2)n1", "note": "(single isomer, unassigned) [Example 69, (1,1-Dioxidothiomorpholin-4-yl){3-(3-ethoxy-1,2,4-oxadiazol-5-yl)-5-[4-(2,2,2-trifluoroethyl)-phenyl]piperidin-1-yl}methanone]", "pIC50": 7.68}
{"smiles": "CCOc1noc(C2CC(c3ccc(CC(F)(F)F)cc3)CN(C(=O)N3CCS(=O)(=O)CC3)C2)n1", "note": "(racemic) [Example 67, (1,1-Dioxidothiomorpholin-4-yl){3-(3-ethoxy-1,2,4-oxadiazol-5-yl)-5-[4-(2,2,2-trifluoroethyl)-phenyl]piperidin-1-yl}methanone]", "pIC50": 7.92}
{"smiles": "CCOc1noc(C2CC(c3ccc(CC(F)(F)F)cc3)CN(C(=O)N3CC[S+]([O-])CC3)C2)n1", "note": "(single isomer, unassigned) [Example 66, {3-(3-Ethoxy-1,2,4-oxadiazol-5-yl)-5-[4-(2,2,2-trifluoroethyl)phenyl]piperidin-1-yl}(1-oxidothio-morpholin-4-yl)methanone]", "pIC50": 7.19}
